In assay [1] the target is T1, native Rho (rhodanese) reporter enzyme (Bos taurus, UniProt P00586).
T1 sequence (P00586 2-297 limits assumed): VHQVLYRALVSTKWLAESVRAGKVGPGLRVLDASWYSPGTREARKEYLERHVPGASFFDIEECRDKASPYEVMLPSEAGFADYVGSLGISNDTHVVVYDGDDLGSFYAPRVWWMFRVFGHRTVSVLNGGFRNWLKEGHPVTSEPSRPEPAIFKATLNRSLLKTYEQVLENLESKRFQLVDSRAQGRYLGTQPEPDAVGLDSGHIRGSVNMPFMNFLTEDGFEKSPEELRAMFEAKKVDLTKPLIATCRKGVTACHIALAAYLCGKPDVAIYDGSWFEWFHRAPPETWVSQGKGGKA
Nature of the assay: Native Rho enzymatic reporter counter-screen. It counts as biochemical. In general terms: Counterscreens check selectivity or assay interference.

In assay [2] the target is T2, native MDH (malate dehydrogenase) reporter enzyme (Sus scrofa, UniProt P00346).
T2 sequence (P00346 25-338): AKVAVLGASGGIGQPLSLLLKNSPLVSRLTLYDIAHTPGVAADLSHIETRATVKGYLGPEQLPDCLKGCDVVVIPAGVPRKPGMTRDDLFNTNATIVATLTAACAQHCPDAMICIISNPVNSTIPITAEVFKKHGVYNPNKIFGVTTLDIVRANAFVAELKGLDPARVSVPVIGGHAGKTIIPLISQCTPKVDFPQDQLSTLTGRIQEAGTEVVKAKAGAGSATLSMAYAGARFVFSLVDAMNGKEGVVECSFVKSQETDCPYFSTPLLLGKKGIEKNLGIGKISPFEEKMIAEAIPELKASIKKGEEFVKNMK
Nature of the assay: Native MDH enzymatic reporter counter-screen. It counts as biochemical.

Assay [3] concerns the target human HSP60/10 chaperonin system (Homo sapiens, UniProt P10809). The assay can be described thus: HSP60/10-dMDH refolding assay. Format: biochemical.
The next assay deals with GroEL ATPase (Escherichia coli, UniProt P0A6F5). Nature of the assay: biochemical.

Counter-ions that a name gives are not always drawn.

Sequence of GroEL ATPase (P0A6F5 2-548): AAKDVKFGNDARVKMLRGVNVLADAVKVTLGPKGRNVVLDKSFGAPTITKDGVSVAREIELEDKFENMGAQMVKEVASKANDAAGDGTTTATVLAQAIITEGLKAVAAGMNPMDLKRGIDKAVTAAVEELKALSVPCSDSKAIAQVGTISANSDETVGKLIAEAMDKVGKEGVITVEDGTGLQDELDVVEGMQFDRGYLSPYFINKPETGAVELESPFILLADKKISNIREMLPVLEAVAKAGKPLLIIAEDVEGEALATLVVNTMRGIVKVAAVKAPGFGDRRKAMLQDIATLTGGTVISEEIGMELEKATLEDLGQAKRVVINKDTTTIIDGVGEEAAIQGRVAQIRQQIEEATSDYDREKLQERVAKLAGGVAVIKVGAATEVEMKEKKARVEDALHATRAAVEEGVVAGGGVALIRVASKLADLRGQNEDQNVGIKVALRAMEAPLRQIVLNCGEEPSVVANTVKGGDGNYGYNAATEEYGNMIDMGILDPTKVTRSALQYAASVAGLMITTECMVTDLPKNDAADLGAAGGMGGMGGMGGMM
Sequence of human HSP60/10 chaperonin system (P10809 27-573): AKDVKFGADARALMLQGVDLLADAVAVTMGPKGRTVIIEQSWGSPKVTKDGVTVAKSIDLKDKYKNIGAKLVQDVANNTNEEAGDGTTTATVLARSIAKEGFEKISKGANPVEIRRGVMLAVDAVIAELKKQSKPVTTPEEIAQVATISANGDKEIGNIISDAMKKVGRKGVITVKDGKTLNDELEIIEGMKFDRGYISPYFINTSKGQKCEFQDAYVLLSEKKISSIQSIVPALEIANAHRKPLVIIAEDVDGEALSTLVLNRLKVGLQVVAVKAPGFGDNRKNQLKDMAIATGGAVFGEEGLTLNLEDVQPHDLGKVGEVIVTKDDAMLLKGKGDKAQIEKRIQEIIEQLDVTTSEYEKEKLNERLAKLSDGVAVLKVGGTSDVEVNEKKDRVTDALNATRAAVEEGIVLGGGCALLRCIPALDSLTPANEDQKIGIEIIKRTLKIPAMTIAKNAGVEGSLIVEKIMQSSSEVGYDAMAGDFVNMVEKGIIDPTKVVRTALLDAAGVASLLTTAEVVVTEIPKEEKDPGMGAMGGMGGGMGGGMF

On to `COc1ccc(-c2ccc3cc(C(=O)O)ccc3c2)cc1C12CC3CC(CC(C3)C1)C2` [Compound 3, Adapalene], for which the IC50 in assay [1] was more than 100 µM; in assay [2], more than 63 µM.

As to `COc1cc(/C=C/C(=O)CC(=O)/C=C/c2ccc(O)c(OC)c2)ccc1O` [Compound 4, Curcumin], the IC50 in assay [2] was more than 63 µM.

With `C=CC1=C(C)c2cc3[nH]c(cc4nc(cc5[nH]c(cc1n2)c(C)c5CCC(=O)O)C(CCC(=O)O)=C4C)c(C)c3C=C` [Compound 5, Protoporphyrin IX], the IC50 in assay [1] was more than 100 µM; in assay [2] it was more than 63 µM.

For `C=C(CC)C(=O)c1ccc(OCC(=O)O)c(Cl)c1Cl` [Compound 6, Ethacrynic acid], the results for the IC50 in assay [1] and in assay [2] were more than 100 µM and more than 63 µM, respectively.

As to `CCCCCCCCCCCCCCCCC(C(=O)O)C(O)(CC(=O)O)C(=O)O` (stereo not drawn) [Compound 7, Agaric acid], the values for the IC50 in assay [1] and in assay [2] were more than 100 µM and more than 63 µM, respectively.

In the case of `CCCCCCCCCCCCCCCC[N+](C)(C)C` [Compound 11, Hexadecyltrimethylammonium bromide], the IC50 in assay [1] is more than 100 µM; in assay [2] it was more than 63 µM.

Molecule `O=C(O)C1=CC(=C(c2ccc(O)c(C(=O)O)c2)c2ccc(O)c(C(=O)O)c2)C=CC1=O` [Compound 13, Aurintricarboxylic acid] displayed an IC50 in assay [1] of more than 100 µM.

As for `CC1(C)CCC2=C(O1)c1ccccc1C(=O)C2=O` [Compound 15, β-laphachone], the IC50 in assay [2] is more than 63 µM.

Molecule `Cc1cc(C(C#N)c2ccc(Cl)cc2)c(Cl)cc1NC(=O)c1cc(I)cc(I)c1O` (stereo not drawn) [Compound 16, Closantel] showed a 50% inhibitory concentration (IC50) in assay [1] of more than 100 µM.

On to `O=c1c(O)c(-c2ccc(O)c(O)c2)oc2c(O)c(O)cc(O)c12` [Compound 18, Gossypetin], for which the IC50 in assay [2] is more than 63 µM.

Regarding `CCCCCCCCCCCCCCCC(=O)OC[C@H](O)[C@H]1OC(=O)C(O)=C1O` [Compound 20, L-Ascorbyl palmitate], the IC50 in assay [2] was more than 63 µM.

In assay [2], `CC1=CC(=O)c2c(O)cccc2C1=O` [Compound 21, Plumbagin] registered an IC50 of more than 63 µM.

Turning to `COc1cc(-c2ccc(/N=N/c3ccc4c(S(=O)(=O)O)cc(S(=O)(=O)O)c(N)c4c3O)c(OC)c2)ccc1/N=N/c1ccc2c(S(=O)(=O)O)cc(S(=O)(=O)O)c(N)c2c1O` [Compound 22, Pontamine sky blue], the values for the IC50 (in assay [2]; in assay [3]; against GroEL ATPase) were more than 63 µM, 6.8 µM and more than 250 µM, respectively.

`C=C(NC(=O)C(=C)NC(=O)c1csc(C2=N[C@@H]3c4csc(n4)[C@H]4NC(=O)c5csc(n5)[C@H]([C@](C)(O)[C@@H](C)O)NC(=O)[C@H]5CSC(=N5)/C(=C/C)NC(=O)[C@H]([C@@H](C)O)NC(=O)c5csc(n5)[C@]3(CC2)NC(=O)[C@H](C)NC(=O)C(=C)NC(=O)[C@H](C)NC(=O)[C@H]([C@@H](C)CC)N[C@@H]2C=Cc3c([C@H](C)O)cc(nc3[C@H]2O)C(=O)O[C@@H]4C)n1)C(N)=O` [Compound 24, Thiostrepton]: the figures for the IC50 in assay [1] and in assay [2] were more than 100 µM and more than 63 µM, respectively.

Regarding `CCCCC/C=C\C/C=C\C/C=C\C/C=C\CCCC(=O)O` [Compound 27, Arachidonic acid], the values for the IC50 in assay [1] and in assay [2] were more than 100 µM and more than 63 µM, respectively.

In assay [1], `Oc1c(Cl)cc(Cl)cc1Sc1cc(Cl)cc(Cl)c1O` [Compound 29, Bithionol] had an IC50 of more than 100 µM.

As to `CC1=CC(=O)c2ccccc2C1=O` [Compound 30, Menadione], the IC50 in assay [2] was more than 63 µM.

`CC[C@H](C)[C@H]1O[C@]2(C=C[C@@H]1C)C[C@@H]1C[C@@H](C/C=C(\C)[C@@H](O[C@H]3C[C@H](OC)[C@@H](O[C@H]4C[C@H](OC)[C@@H](O)[C@H](C)O4)[C@H](C)O3)[C@@H](C)/C=C/C=C3\CO[C@@H]4[C@H](O)C(C)=C[C@@H](C(=O)O1)[C@]34O)O2` [Compound 32, Abamectin (Avermectin b1a)]: the IC50 in assay [1] was more than 100 µM; in assay [2] it was more than 63 µM.

On to `CC[C@H](C)C1O[C@]2(C=C[C@@H]1C)C[C@@H]1C[C@@H](C/C=C(\C)[C@@H](O[C@H]3C[C@H](OC)[C@@H](O[C@H]4C[C@H](OC)[C@H](NC(C)=O)[C@H](C)O4)[C@H](C)O3)[C@@H](C)/C=C/C=C3\CO[C@@H]4[C@H](O)C(C)=C[C@@H](C(=O)O1)[C@]34O)O2` (stereo partly drawn) [Compound 33, Eprinomectin], for which the IC50 in assay [1] was more than 100 µM; in assay [2] it was more than 63 µM.

In turn, `CN(C)c1ccc(C(=C2C=CC(=[N+](C)C)C=C2)c2ccc(N(C)C)cc2)cc1` [Compound 34, Crystal violet] returned an IC50 in assay [2] of more than 63 µM.

For the molecule `COc1ccc(C(=O)/C=C/c2ccccc2)cc1` [Compound 35, 4’-Methoxychalcone], the IC50 is more than 100 µM in assay [1] and more than 63 µM in assay [2].

The molecule `O=C1c2ccccc2C(=O)c2c(O)c(O)cc(O)c21` [Compound 37, Purpurin] returned an IC50 in assay [2] of more than 63 µM.

As to `C[C@H](CCC(=O)O)[C@H]1CC[C@H]2[C@@H]3CC[C@@H]4C[C@H](O)CC[C@]4(C)[C@H]3CC[C@]12C` [Compound 38, Lithocholic acid], the values for the IC50 in assay [1] and in assay [2] were more than 100 µM and more than 63 µM, respectively.

As to `CCc1oc2ccccc2c1C(=O)c1cc(Br)c(O)c(Br)c1` [Compound 40, Benzbromarone], the values for the IC50 in assay [1] and in assay [2] were more than 100 µM and more than 63 µM, respectively.

For `C=C1CC[C@H](O)C/C1=C/C=C1\CCC[C@]2(C)[C@@H]([C@H](C)CCCC(C)C)CC[C@@H]12` [Compound 41, Cholecalciferol (vtamin D3)], the figures for the 50% inhibitory concentration (IC50) in assay [1] and in assay [2] were more than 100 µM and more than 63 µM, respectively.

For `O=C(/C=C/c1ccc(O)cc1)c1ccccc1` [Compound 43, 4-Hydroxychalcone], the figures for the IC50 in assay [1] and in assay [2] were more than 100 µM and more than 63 µM, respectively.

As for `O=C(/C=C/c1ccccc1)c1ccc(O)cc1` [Compound 44, 4’-Hydroxychalcone], the figures for the IC50 in assay [1] and in assay [2] were more than 100 µM and more than 63 µM, respectively.

Turning to `Oc1ccc(Cl)cc1Cc1cc(Cl)ccc1O` [Compound 45, Dichlorophen], the IC50 in assay [1] was more than 100 µM; in assay [2], more than 63 µM.

In assay [2], `C=C1CC[C@H](O)C/C1=C/C=C1\CCC[C@]2(C)[C@@H]([C@H](C)/C=C/[C@H](C)C(C)C)CC[C@@H]12` [Compound 46, Calciferol (Vtamin D2)] yielded an IC50 of more than 63 µM.

`CC(COc1ccccc1)N(CCCl)Cc1ccccc1` (stereo not drawn) [Compound 47, Phenoxybenzamine HCl]: the IC50 was more than 100 µM in assay [1] and more than 63 µM in assay [2].

`COc1cc(NC(C)CCCN)c2ncccc2c1` (stereo not drawn) [Compound 49, Primiquine]: the IC50 in assay [2] is more than 63 µM.

`Cc1cc2nc3c(=O)[nH]c(=O)nc-3n(C[C@H](O)[C@H](O)[C@H](O)COP(=O)(O)O)c2cc1C` [Compound 50, Riboflavin-5-phosphate sodium salt] yielded an IC50 in assay [2] of more than 63 µM.

In assay [2], `CC[n+]1c(-c2ccccc2)c2cc(N)ccc2c2ccc(N)cc21` [Compound 51, Ethidium bromide] had an IC50 of more than 63 µM.

With `CC[C@H]1OC(=O)[C@H](C)[C@@H](O[C@H]2C[C@@](C)(OC)[C@@H](O)[C@H](C)O2)[C@H](C)[C@@H](O[C@@H]2O[C@H](C)C[C@H](N(C)C)[C@H]2O)[C@](C)(O)C[C@@H](C)C(=O)[C@H](C)[C@@H](O)[C@]1(C)O` [Compound 55, (−)-Erythromycin], the IC50 in assay [1] was more than 100 µM; in assay [2], more than 63 µM.

With `CCOc1nc2cccc(C(=O)O)c2n1Cc1ccc(-c2ccccc2-c2nnn[nH]2)cc1` [Compound 56, Candesartan], the 50% inhibitory concentration (IC50) in assay [1] was more than 100 µM; in assay [2], more than 63 µM.

As to `CC(C)(C)NCC(O)c1ccc(O)c(CO)c1` (stereo not drawn) [Compound 57, Albuterol], the IC50 was more than 100 µM in assay [1] and more than 63 µM in assay [2].

Consider `CCCCN1CCC(COC(=O)c2cc(Cl)c(N)c3c2OCCO3)CC1` [Compound 59, SB 204070], for which the 50% inhibitory concentration (IC50) was more than 100 µM in assay [1] and more than 63 µM in assay [2].

A word on the IC50: it is the concentration that gives 50% inhibition.

(Values after article PMC6450568 (Bioorganic & medicinal chemistry letters, 2019).)
